Experimental data published in patent publication US20030013688A1, “Synergistic combination of pravastatin and aspirin and method” (priority 2001, published 2003).

Tested on: any cardiac event, including ischemic stroke, or death
Assay: Bayesian hierarchical (Cox proportional hazards, Models 1 and 2) analysis of five secondary prevention studies (CARE, LIPID, PLAC I, PLAC II, REGRESS) for synergy between pravastatin and aspirin
Type: in vivo, human
Details: for posterior mean of the coefficient γT: Model 1, logarithmic scale, relative to placebo (γplacebo=0)
Method: In this study 40 mg pravastatin and 81 mg aspirin and higher were employed.
The primary endpoint was (i) any cardiac event, including ischemic stroke, or death. Secondary endpoints were individual components of the primary endpoint: (ii) any cardiac event, excluding stroke, (iii) any myocardial infarction, (iv) ischemic stroke, and (v) death. Analyses of these secondary endpoints as opposed to the primary endpoint are subject to greater uncertainty because the numbers of events are smaller. Therefore, conclusions for the secondary endpoints are likely to be less compelling.
The five studies available for addressing the synergy between pravastatin and aspirin for secondary prevention are listed and described in Table 1. Patients in all five studies were randomized to pravastatin vs placebo. All patients in all five studies are included in the primary analysis.
These may be due to random variability or to differences in patient populations. To take these differences into account, the role of patient characteristics was modeled, namely, the following covariates were considered: age, gender, smoking status, existence of coronary artery disease, and baseline values of LDL and HDL cholesterols, triglycerides, and diastolic and systolic blood pressures. In addition, the studies were conducted under different circumstances and by different investigators and even in different countries. Therefore, there may be additional study-specific differences that cannot be explained by differences in measured patient covariates. To allow for the possibility that treatment effects depend on study even after accounting for patient characteristics, Bayesian hierarchical modeling was used in which the study is one level of experimental unit and patient-within-study is a second level.
A brief introduction to Bayesian hierarchical modeling and a description of standard Bayesian hierarchical Cox proportional hazards model (Model 1) are set out below. An extension of the standard model that allows for treatment-specific time-varying hazards (Model 2) is also described. In addition, the sensitivity of the conclusions to the prior distribution of the parameter that regulates the extent of pooling of the various studies is addressed.
Model 1: Bayesian Hierarchical Analysis Using Cox Proportional Hazards Model
The Cox proportional hazards model takes hazard H to be of the form
where Z is the set of patient-specific covariates (listed above), β is the vector of regression coefficients and λ0(t) is the baseline hazard function. Treatment and study are considered separately from covariates Z, as follows: […]
Assessing the probability of synergy is straightforward in Model 1 when using Markov chain Monte Carlo (MCMC) methods. […] During each iteration of MCMC, this synergy condition is assessed. […]

SMILES | posterior mean of the coefficient γT (primary endpoint (All events)) | performance in comparison with placebo alone (primary endpoint (All events), Models 1 and 2) | estimated event rate (hazard) compared among treatment arms (stroke, Model 2, year 1)
CC(=O)Oc1ccccc1C(=O)O [aspirin, acetylsalicylic acid] | −0.0022 | essentially the same | lowest estimated event rate
CC[C@H](C)C(=O)O[C@H]1C[C@H](O)C=C2C=C[C@H](C)[C@H](CC[C@@H](O)C[C@@H](O)CC(=O)O)[C@H]21 [pravastatin] | −0.0985 |  | 
